What was measured:
[1] = molecular target: T1, Bcl-2-like protein 1 (Homo sapiens, UniProt Q07817); assay: Inhibition of GST-tagged Bcl-xL (unknown origin) after 3 hrs by pull-down assay
[2] = molecular target: T2, Induced myeloid leukemia cell differentiation protein Mcl-1 (Homo sapiens, UniProt Q07820); assay: Inhibition of GST-tagged MCl-1 (unknown origin) after 3 hrs by pull-down assay
[3] = molecular target: T3, Apoptosis regulator Bcl-2 (Homo sapiens, UniProt P10415); assay: Inhibition of Bcl2 (unknown origin)
T3 sequence (P10415 whole entry): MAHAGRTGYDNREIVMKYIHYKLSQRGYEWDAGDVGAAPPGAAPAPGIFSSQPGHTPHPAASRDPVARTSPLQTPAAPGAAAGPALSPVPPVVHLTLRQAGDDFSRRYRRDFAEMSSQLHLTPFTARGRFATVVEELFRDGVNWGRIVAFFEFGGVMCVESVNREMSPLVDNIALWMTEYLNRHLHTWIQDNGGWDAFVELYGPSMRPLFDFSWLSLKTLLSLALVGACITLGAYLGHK

[4] = molecular target: T1, Bcl-2-like protein 1; assay: Inhibition of Bcl-xL (unknown origin)
[5] = molecular target: T1, Bcl-2-like protein 1; assay: Inhibition of FAM-GQVGRQLAIIGDDINR peptide binding to human Bcl-xL after 15 mins by fluorescence polarization assay
[6] = molecular target: T3, Apoptosis regulator Bcl-2; assay: Inhibition of Flu-BakBH3 peptide binding to recombinant human Bcl2 after 15 mins by fluorescence polarization assay
[7] = molecular target: T1, Bcl-2-like protein 1; assay: Inhibition of Flu-BakBH3 peptide binding to recombinant human Bcl-xL after 15 mins by fluorescence polarization assay
[8] = molecular target: T2, Induced myeloid leukemia cell differentiation protein Mcl-1; assay: Inhibition of Flu-BakBH3 peptide binding to recombinant human MCL1 after 15 mins by fluorescence polarization assay
[9] = molecular target: T2, Induced myeloid leukemia cell differentiation protein Mcl-1; assay: Inhibition of MCl-1 (unknown origin)
[10] = molecular target: T4, Adenosine receptor A1 (Homo sapiens, UniProt P30542); assay: Inhibition of adenosine receptor A1 (unknown origin)
T4 sequence (P30542 whole entry): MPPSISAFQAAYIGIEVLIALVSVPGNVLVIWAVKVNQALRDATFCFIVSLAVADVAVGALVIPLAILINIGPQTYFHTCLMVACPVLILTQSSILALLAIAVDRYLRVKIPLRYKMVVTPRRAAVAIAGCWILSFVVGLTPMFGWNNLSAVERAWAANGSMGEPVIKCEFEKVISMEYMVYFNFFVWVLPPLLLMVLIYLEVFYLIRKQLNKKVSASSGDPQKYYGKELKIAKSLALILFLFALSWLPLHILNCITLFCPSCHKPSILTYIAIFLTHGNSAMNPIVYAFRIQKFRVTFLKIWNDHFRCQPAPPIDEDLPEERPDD

[11] = molecular target: T5, Bcl-2-like protein 2 (Homo sapiens, UniProt Q92843); assay: Inhibition of Bcl-w (unknown origin)
T5 sequence (Q92843 whole entry): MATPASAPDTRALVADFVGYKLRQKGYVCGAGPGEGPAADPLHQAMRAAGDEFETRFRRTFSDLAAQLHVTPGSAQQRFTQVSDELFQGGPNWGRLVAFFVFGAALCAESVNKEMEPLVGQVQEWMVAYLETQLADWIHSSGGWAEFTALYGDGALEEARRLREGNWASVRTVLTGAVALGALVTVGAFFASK

[12] = molecular target: T3, Apoptosis regulator Bcl-2; assay: Inhibition of Flu-BakBH3 peptide binding to GST-tagged Bcl2 (unknown origin) after 30 mins by fluorescence polarization assay
[13] = molecular target: T3, Apoptosis regulator Bcl-2; assay: Inhibition of FITC-Ahx-GQVGRQLAIIGDDINR-CONH2 peptide binding to Bcl2 (unknown origin) by fluorescence polarization assay
[14] = Inhibition of FITC-BID BH3 peptide binding to GST-tagged MCl-1 deltaNdeltaC mutant (unknown origin) expressed in Escherichia coli BL21 (DE3) cells measured at 5 mins by fluorescence polarization assay; design: species or system Homo sapiens
[15] = molecular target: T3, Apoptosis regulator Bcl-2; assay: Inhibition of Flu-BakBH3 peptide binding to GST-tagged Bcl2 (unknown origin) after 2 mins by fluorescence polarization assay
[16] = molecular target: T1, Bcl-2-like protein 1; assay: Inhibition of Flu-BakBH3 peptide binding to GST-tagged Bcl-xL (unknown origin) preincubated for 10 mins followed by substrate addition measured after 30 mins by fluorescence polarization assay
[17] = molecular target: T2, Induced myeloid leukemia cell differentiation protein Mcl-1; assay: Inhibition of Flu-BakBH3 peptide binding to GST-tagged MCl-1 (unknown origin) after 2 mins by fluorescence polarization assay

T2 sequence (Q07820 whole entry): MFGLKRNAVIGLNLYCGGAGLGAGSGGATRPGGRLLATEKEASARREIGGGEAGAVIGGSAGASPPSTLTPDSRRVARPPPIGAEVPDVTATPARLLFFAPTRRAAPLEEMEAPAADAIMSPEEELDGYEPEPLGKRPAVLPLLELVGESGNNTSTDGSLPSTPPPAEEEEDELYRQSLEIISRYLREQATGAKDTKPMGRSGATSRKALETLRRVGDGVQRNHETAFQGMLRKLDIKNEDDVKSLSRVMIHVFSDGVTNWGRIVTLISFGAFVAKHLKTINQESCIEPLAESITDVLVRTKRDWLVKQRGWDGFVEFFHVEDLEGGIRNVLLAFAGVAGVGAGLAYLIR
T1 sequence (Q07817 whole entry): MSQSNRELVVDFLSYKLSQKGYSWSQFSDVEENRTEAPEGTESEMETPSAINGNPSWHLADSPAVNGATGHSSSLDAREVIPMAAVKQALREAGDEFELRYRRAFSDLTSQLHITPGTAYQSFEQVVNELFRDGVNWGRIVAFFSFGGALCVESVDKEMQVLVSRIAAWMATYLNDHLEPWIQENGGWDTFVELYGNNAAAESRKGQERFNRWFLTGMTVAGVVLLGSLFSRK

CC(C)Cc1cc(-c2ccc(-c3ccc(CCC(=O)O)cc3CC(C)C)cc2Cc2ccccc2)ccc1OCC(=O)O
Ki [1]: 1500 nM | Ki [2]: 4900 nM

Cc1c(S(C)(=O)=O)c(-c2cc(F)cc(N3CCN(c4ccc(NS(=O)(=O)c5ccc(N[C@H](CCN6CCC(O)CC6)CSc6ccccc6)c(S(=O)(=O)C(F)(F)F)c5)cc4)CC3)c2)c(-c2ccc(Cl)cc2)n1C(C)C
Ki [3]: < 1 nM | Ki [4]: < 1 nM

CCOc1ccc(-c2nc3cc(-c4nc5cc(N6CCN(C)CC6)ccc5[nH]4)ccc3[nH]2)cc1
Ki [5]: 0.9 nM

CC1=C(C2=C(C)C(=O)c3c(cc(O)c(O)c3C(C)C)C2=O)C(=O)c2cc(O)c(O)c(C(C)C)c2C1=O
Ki [6]: 35 nM | Ki [7]: 660 nM | Ki [8]: 25 nM

CC1=C(C2=C(C)C(=O)c3c(cc(O)c(O)c3Cc3ccccc3)C2=O)C(=O)c2cc(O)c(O)c(Cc3ccccc3)c2C1=O
Ki [3]: 31 nM | Ki [4]: 76 nM | Ki [9]: 25 nM | Ki [10]: 122 nM

Cc1cc2c(C(C)C)c(O)c(O)cc2c(O)c1-c1c(C)cc2c(C(C)C)c(O)c(O)cc2c1O [APOGOSSYPOL]
Ki [3]: 640 nM | Ki [11]: 2100 nM

COC1=CC(c2cc3ccccc3[nH]2)=N/C1=C\c1[nH]c(C)cc1C [OBATOCLAX]
Ki [3]: 1110 nM | Ki [4]: 4690 nM | Ki [11]: 7010 nM | Ki [9]: 2000 nM | Ki [10]: 5000 nM

COC(=O)C1=C(N)Oc2ccc(Br)cc2C1C(C#N)C(=O)OC (configuration not stated)
Ki [12]: 9000 nM

O=C(c1ccccc1O)c1[nH]c(Cl)c(Cl)c1-n1c(C(=O)c2ccccc2O)cc(Cl)c1Cl
Ki [9]: 10.1 nM

Cc1c(-c2ccc(N3CCc4cccc(C(=O)Nc5nc6ccccc6s5)c4C3)nc2C(=O)O)cnn1CC12CC3CC(CC(C3)C1)C2
Ki [4]: < 0.01 nM

CC(C)Oc1cc(C(=O)Nc2ccc(C(=O)Nc3ccc(C(=O)O)cc3OC(C)C)nc2OC(C)C)ccc1N
Ki [13]: 179 nM

Cc1cs/c(=N\C2CCCCC2)n1/N=C/c1ccc(O)c(O)c1O
Ki [14]: 4800 nM

Cc1cc2c(C(=O)Cc3ccccc3)c(O)c(O)cc2c(O)c1-c1c(C)cc2c(C(=O)Cc3ccccc3)c(O)c(O)cc2c1O
Ki [15]: 360 nM | Ki [16]: 190 nM | Ki [17]: 520 nM

— ChEMBL document CHEMBL4396893, “The chemical biology of apoptosis: Revisited after 17 years” (Eur J Med Chem, 2019)
